Laboratory results: ChEMBL document CHEMBL4130590, “Mtb PKNA/PKNB Dual Inhibition Provides Selectivity Advantages for Inhibitor Design To Minimize Host Kinase Interactions” (ACS Med Chem Lett, 2017)
≈ marks a conversion by molar mass, not a printed value.

Tests used:
[1] = molecular target: T1, Serine/threonine-protein kinase PknB (Mycobacterium tuberculosis, UniProt P9WI81); test: Inhibition of Mycobacterium tuberculosis PknB (M1 to G279 residues) expressed in Escherichia coli BL21 (DE3) cells using [T-33P]ATP as substrate after 50 mins in presence of GarA by liquid scintillation method
T1 sequence (P9WI81 whole entry): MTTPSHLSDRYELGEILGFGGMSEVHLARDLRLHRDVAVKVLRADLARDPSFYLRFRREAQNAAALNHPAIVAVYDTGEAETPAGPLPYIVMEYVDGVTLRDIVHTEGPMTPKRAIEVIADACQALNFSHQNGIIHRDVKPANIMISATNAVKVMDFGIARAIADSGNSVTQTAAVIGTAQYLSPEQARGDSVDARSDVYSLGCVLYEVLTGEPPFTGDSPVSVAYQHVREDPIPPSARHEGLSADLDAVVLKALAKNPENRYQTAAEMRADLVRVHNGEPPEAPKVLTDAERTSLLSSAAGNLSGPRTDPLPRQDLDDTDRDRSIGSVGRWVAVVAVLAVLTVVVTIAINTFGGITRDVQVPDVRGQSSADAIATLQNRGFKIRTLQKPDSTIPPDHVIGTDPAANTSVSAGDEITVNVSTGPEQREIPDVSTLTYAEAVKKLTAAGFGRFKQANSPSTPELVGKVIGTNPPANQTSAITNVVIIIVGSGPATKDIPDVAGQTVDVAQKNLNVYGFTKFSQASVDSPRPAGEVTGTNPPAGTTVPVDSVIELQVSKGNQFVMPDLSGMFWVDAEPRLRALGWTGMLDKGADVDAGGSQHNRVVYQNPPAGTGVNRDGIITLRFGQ

[2] = molecular target: T2, Serine/threonine-protein kinase PknA (Mycobacterium tuberculosis (strain ATCC 25618 / H37Rv), UniProt P9WI83); test: Inhibition of Mycobacterium tuberculosis PknA (M1 to A296 residues) expressed in Escherichia coli BL21 (DE3) pLysS cells using [T-33P]ATP as substrate after 120 mins in presence of GarA by liquid scintillation method
T2 sequence (P9WI83 whole entry): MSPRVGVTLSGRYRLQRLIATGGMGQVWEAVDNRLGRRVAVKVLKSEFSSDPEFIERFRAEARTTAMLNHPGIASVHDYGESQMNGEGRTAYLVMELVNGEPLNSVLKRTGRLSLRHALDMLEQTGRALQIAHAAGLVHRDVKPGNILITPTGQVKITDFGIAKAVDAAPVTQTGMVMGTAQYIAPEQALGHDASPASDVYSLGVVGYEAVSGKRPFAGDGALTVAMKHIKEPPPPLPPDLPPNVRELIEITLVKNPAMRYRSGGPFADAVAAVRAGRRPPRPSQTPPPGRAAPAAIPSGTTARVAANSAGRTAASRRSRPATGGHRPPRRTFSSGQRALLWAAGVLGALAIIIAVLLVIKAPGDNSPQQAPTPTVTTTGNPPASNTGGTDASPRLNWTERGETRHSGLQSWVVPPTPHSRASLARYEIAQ

CDK2/Cyclin A2 = CDK2/Cyclin A2 (Homo sapiens, UniProt P24941); test: Inhibition of recombinant CDK2/cyclin A (unknown origin) using MAHHRSPRKRAKKK as substrate by pyruvate kinase-lactate dehydrogenase coupled assay; assay type: protein-complex assay
[3] = Selectivity ratio of Ki for recombinant CDK2/cyclin A (unknown origin) to Ki for Mycobacterium tuberculosis PknB (M1 to G279 residues)
[4] = tested on: Mycobacterium tuberculosis; test: Antibacterial activity against Mycobacterium tuberculosis H37Ra after […] by resazurin reduction assay; assay type: functional
[5] = molecular target: Glycogen synthase kinase-3 beta (Homo sapiens, UniProt P49841); test: Inhibition of recombinant GSK3beta (unknown origin) using HSSPHQ(Sp)EDEEE as substrate by pyruvate kinase-lactate dehydrogenase coupled assay
Chain of Glycogen synthase kinase-3 beta (P49841 whole entry): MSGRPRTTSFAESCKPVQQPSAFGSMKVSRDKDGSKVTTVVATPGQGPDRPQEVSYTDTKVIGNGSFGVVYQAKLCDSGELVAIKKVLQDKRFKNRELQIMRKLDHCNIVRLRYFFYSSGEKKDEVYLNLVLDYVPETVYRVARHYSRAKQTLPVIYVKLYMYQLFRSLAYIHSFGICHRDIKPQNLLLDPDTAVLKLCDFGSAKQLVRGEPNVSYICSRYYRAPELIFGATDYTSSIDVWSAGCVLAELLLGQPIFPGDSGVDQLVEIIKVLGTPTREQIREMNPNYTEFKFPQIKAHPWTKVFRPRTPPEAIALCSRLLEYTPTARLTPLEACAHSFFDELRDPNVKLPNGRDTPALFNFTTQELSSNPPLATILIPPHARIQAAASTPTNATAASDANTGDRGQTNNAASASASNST

[6] = molecular target: Proto-oncogene tyrosine-protein kinase Src (Homo sapiens, UniProt P12931); test: Inhibition of recombinant SRC (unknown origin) using polyE4Y as substrate by pyruvate kinase-lactate dehydrogenase coupled assay
Chain of Proto-oncogene tyrosine-protein kinase Src (P12931 2-536 limits assumed): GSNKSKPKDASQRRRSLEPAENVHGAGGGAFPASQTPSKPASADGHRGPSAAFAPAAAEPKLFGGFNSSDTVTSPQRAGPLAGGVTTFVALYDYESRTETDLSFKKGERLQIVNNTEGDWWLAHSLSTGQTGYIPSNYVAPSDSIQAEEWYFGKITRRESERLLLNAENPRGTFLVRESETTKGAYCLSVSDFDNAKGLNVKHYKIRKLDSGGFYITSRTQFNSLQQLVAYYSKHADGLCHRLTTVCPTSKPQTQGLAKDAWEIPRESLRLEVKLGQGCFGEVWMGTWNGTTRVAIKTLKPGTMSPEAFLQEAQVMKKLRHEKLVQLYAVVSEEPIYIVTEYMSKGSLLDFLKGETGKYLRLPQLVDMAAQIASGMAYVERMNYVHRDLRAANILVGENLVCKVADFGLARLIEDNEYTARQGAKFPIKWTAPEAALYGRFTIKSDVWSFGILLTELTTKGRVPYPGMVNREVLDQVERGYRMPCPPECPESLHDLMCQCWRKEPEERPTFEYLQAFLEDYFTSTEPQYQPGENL

## CC(=O)N1CCCN(c2nc(Nc3cc(C4CC4)[nH]n3)c3cc(Cl)ccc3n2)CC1
[1]
  Ki: 150 nM

## Fc1ccc2nc(N3CCCCCC3)nc(Nc3cc(C4CC4)[nH]n3)c2c1
[2]
  Ki: > 33000 nM
[1]
  Ki: 81 nM

## OCc1cccc(-c2nc(Nc3cc(C4CC4)[nH]n3)c3cc(Cl)ccc3n2)c1
[2]
  Ki: 2300 nM
[1]
  Ki: 23 nM

## NS(=O)(=O)c1cccc(-c2nc(Nc3cc(C4CC4)[nH]n3)c3cc(Cl)ccc3n2)c1
[2]
  Ki: < 8 nM
[1]
  Ki: 6 nM

## CN1CCN(c2nc(Nc3cc(C4CC4)[nH]n3)c3cc(Cl)ccc3n2)CCC1=O
[1]
  Ki: 310 nM

## NS(=O)(=O)c1ccc(-c2nccc(Nc3cc(C4CC4)[nH]n3)n2)s1
CDK2/Cyclin A2
  Ki: 7 nM
[2]
  Ki: 18 nM
[3]
  Ratio Ki: 2
[1]
  Ki: 4 nM
[4]
  MIC90: 4.2 µM (≈ 1.52 µg/mL)

## Cc1ccc2nc(N3CCCCCC3)nc(Nc3cc(C4CC4)[nH]n3)c2c1
[2]
  Ki: > 33000 nM
[1]
  Ki: 98 nM

## Clc1ccc2nc(-c3ccccc3)nc(Nc3cc(C4CC4)[nH]n3)c2c1
[2]
  Ki: > 4000 nM
[1]
  Ki: 60 to 69 nM

## COC(=O)N1CCCN(c2nc(Nc3cc(C4CC4)[nH]n3)c3cc(Cl)ccc3n2)CC1
[1]
  Ki: 230 nM

## Clc1ccc2nc(NC3CCC3)nc(Nc3cc(C4CC4)[nH]n3)c2c1
[1]
  Ki: 72 nM

## N#Cc1ccc(-c2nc(Nc3cc(C4CC4)[nH]n3)c3ccccc3n2)cc1
CDK2/Cyclin A2
  Ki: 140 nM
[1]
  Ki: 46 nM
[5]
  Ki: 70 nM
[6]
  Ki: 18 nM

## N#CCc1ccc(-c2nc(Nc3cc(C4CC4)[nH]n3)c3cc(Cl)ccc3n2)cc1
[2]
  Ki: > 4000 nM
[1]
  Ki: 5 nM

## NC(=O)Cc1ccc(-c2nc(Nc3cc(C4CC4)[nH]n3)c3cc(Cl)ccc3n2)cc1
[2]
  Ki: 1800 nM
[1]
  Ki: 23 nM

## NS(=O)(=O)c1ccc(-c2ncc(Cl)c(Nc3cc(C4CC4)[nH]n3)n2)cc1
[2]
  Ki: 2900 nM
[1]
  Ki: 13 nM
[4]
  MIC90: > 100 µM

## Cc1cnc(-c2ccc(S(N)(=O)=O)s2)nc1Nc1cc(C2CC2)n(C)n1
[2]
  Ki: > 4000 nM
[1]
  Ki: > 4000 nM
[4]
  MIC90: > 100 µM

## N#Cc1ccc(-c2nc(Nc3cc(C4CC4)[nH]n3)c3cc(Cl)ccc3n2)cc1
CDK2/Cyclin A2
  Ki: 170 nM
[2]
  Ki: > 4000 nM
[1]
  Ki: 88 nM
[5]
  Ki: 190 nM
[6]
  Ki: 710 nM

## Clc1ccc2nc(N3CCCOCC3)nc(Nc3cc(C4CC4)[nH]n3)c2c1
[1]
  Ki: 150 nM

## NS(=O)(=O)c1ccc(-c2ncc(Cl)c(Nc3cc(C4CC4)[nH]n3)n2)s1
CDK2/Cyclin A2
  Ki: 17 nM
[2]
  Ki: 9 nM
[3]
  Ratio Ki: > 13
[1]
  Ki: < 1.3 nM
[4]
  MIC90: 6.25 µM (≈ 2.48 µg/mL)

## N#Cc1cccc(-c2nc(Nc3cc(C4CC4)[nH]n3)c3ccccc3n2)c1
CDK2/Cyclin A2
  Ki: 11 nM
[1]
  Ki: 40 nM
[5]
  Ki: 9 nM
[6]
  Ki: 22 nM

## NC(=O)c1ccc(-c2nc(Nc3cc(C4CC4)[nH]n3)c3cc(Cl)ccc3n2)cc1
[2]
  Ki: > 4000 nM
[1]
  Ki: 29 nM

## Clc1ccc2nc(N3CCNCC3)nc(Nc3cc(C4CC4)[nH]n3)c2c1
[1]
  Ki: 990 nM

## NC(=O)c1cccc(-c2nc(Nc3cc(C4CC4)[nH]n3)c3cc(Cl)ccc3n2)c1
[2]
  Ki: > 4000 nM
[1]
  Ki: 15 nM

## NS(=O)(=O)c1cccc(-c2ncc(Cl)c(Nc3cc(C4CC4)[nH]n3)n2)c1
[2]
  Ki: < 8 nM
[1]
  Ki: 17 nM
[4]
  MIC90: 8.3 µM (≈ 3.24 µg/mL)

## N#CCc1cccc(-c2nc(Nc3cc(C4CC4)[nH]n3)c3cc(Cl)ccc3n2)c1
[1]
  Ki: 38 nM

## CC(C)N1CCN(c2nc(Nc3cc(C4CC4)[nH]n3)c3cc(Cl)ccc3n2)CC1
[1]
  Ki: 1400 nM

## NS(=O)(=O)c1ccc(-c2ncc(F)c(Nc3cc(C4CC4)[nH]n3)n2)s1
[2]
  Ki: 12 nM
[1]
  Ki: < 1 nM
[4]
  MIC90: 3.1 µM (≈ 1.18 µg/mL)

## Cc1cnc(-c2ccc(S(N)(=O)=O)s2)nc1Nc1cc(C2CC2)[nH]n1
[2]
  Ki: 18 nM
[1]
  Ki: 4 nM
[4]
  MIC90: 4.7 µM (≈ 1.77 µg/mL)

## O=C1CCN(c2nc(Nc3cc(C4CC4)[nH]n3)c3cc(Cl)ccc3n2)CCN1
[1]
  Ki: 190 nM

## O=C(c1ccccc1)N1CCN(c2nc(Nc3cc(C4CC4)[nH]n3)c3cc(Cl)ccc3n2)CC1
[1]
  Ki: 310 nM

## Clc1ccc2nc(N3CCCNCC3)nc(Nc3cc(C4CC4)[nH]n3)c2c1
[1]
  Ki: 960 nM

## NS(=O)(=O)c1ccc(-c2nc(Nc3cc(C4CC4)[nH]n3)c3cc(Cl)ccc3n2)cc1
[2]
  Ki: 22 nM
[1]
  Ki: 24 nM

## COc1ccc2nc(N3CCCCCC3)nc(Nc3cc(C4CC4)[nH]n3)c2c1
[2]
  Ki: > 33000 nM
[1]
  Ki: 82 nM

## Clc1ccc2nc(N3CCCCCC3)nc(Nc3cc(C4CC4)[nH]n3)c2c1
[2]
  Ki: > 33000 nM
[1]
  Ki: 150 nM
[4]
  MIC90: 33 µM (≈ 12.6 µg/mL)

## N#Cc1cccc(-c2nc(Nc3cc(C4CC4)[nH]n3)c3cc(Cl)ccc3n2)c1
CDK2/Cyclin A2
  Ki: 750 nM
[2]
  Ki: > 4000 nM
[1]
  Ki: 50 nM
[5]
  Ki: > 4000 nM
[6]
  Ki: 200 nM

## NS(=O)(=O)c1ccc(-c2nc(Nc3cc(C4CC4)[nH]n3)c3cc(Cl)ccc3n2)s1
[2]
  Ki: < 8 nM
[1]
  Ki: < 1 nM
